In this assay the target is arrestin-1 (visual arrestin) (Bos taurus, UniProt P08168, F197A/F85A). Put plainly: 2D 1H-15N TROSY NMR chemical shift titration fitted to a […] model. The class given is binding.
arrestin-1 (visual arrestin), sequence (P08168 whole entry F85A/F197A): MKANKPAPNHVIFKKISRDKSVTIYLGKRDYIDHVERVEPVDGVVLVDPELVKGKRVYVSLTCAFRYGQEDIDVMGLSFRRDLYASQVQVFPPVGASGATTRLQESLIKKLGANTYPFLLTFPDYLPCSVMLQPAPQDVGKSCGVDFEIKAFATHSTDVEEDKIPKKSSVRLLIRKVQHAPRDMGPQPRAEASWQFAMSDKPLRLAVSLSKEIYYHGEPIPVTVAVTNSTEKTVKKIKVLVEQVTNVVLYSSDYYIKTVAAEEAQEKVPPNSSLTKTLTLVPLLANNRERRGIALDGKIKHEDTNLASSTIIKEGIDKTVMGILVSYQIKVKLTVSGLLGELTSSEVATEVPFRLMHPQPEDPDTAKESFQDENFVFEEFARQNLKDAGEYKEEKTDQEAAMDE

In the case of `O=P(O)(O)O[C@H]1[C@H](OP(=O)(O)O)[C@@H](OP(=O)(O)O)[C@H](OP(=O)(O)O)[C@@H](OP(=O)(O)O)[C@H]1OP(=O)(O)O` [IP6], the Kd came to 160 ± 60 µM.

In general, Kd refers to a measure of binding affinity in units of concentration.

The values above are taken from publication PMC3074303 (Biochemistry, 2010).
